From patent publication US10500223B2, “Therapeutic agent for myotonic dystrophy” (Osaka University, priority 2015, dated 2019)
Several values for one entry are separate records, joined by “and”; a condition that tells them apart may be missing. Equal values may be shown once.

Experiments:
C2C12-DMPK800R cells = assay: RNA foci formation in MyD model cells (FISH); type: cell-based, mouse; conditions: erythromycin 25 or 50 μM, 72 hours, vs medium without erythromycin
Experimental: MyD model cells were treated with erythromycin, and the number of RNA foci was measured by the FISH (fluorescence in situ hybridization) method.
The MyD cell model used was cells established by transfection of a DMPK gene containing 800 CTG repeats into C2C12 cells (C2C12-DMPK800R, Nucleic Acids Research, 2014, 42 (10), 6591-6602). The establishment of the C2C12-DMPK800 cells was performed in the following procedure. Both a plasmid (pLC16) with a DMPK gene sequence containing 800 CTG repeats in the 3′-untranslated region and a plasmid expressing PhiC31 integrase were transfected into the C2C12 mouse myoblast cell line using Nucleofector (trade name, Lonza), and stably expressing cells were selected using a selection medium with puromycin. Next, a plasmid expressing Cre recombinase was transfected into the stably expressing cells, and a clone in which the transcription of 800 CUG had been activated was selected using a selection medium with hygromycin. […]
The MyD model cells were cultured in DMEM medium supplemented with 10% FBS and penicillin/streptomycin under the conditions of 37° C. and 5% CO2. […] After mounting in Vectashield with DAPI (trade name, Vector Laboratories), the number of RNA foci in the nucleus was counted with a fluorescence microscope (Keyence PZ-9000).

[1] = system: Atp2a1 gene exon 22 splicing; assay: Aberrant splicing of Atp2a1 exon 22 in MyD model cells (RT-PCR); type: cell-based, mouse; conditions: C2C12-DMPK800R cells, erythromycin 25 or 50 μM, 72 hours
Experimental: The MyD model cells were treated with erythromycin, and whether erythromycin would correct aberrant splicing in exon 22 of the Atp2a1 gene was examined. The same MyD model cells as in Example 1 (C2C12-DMP[…]) were used. The same erythromycin as in Example 1 was used. To the medium of the MyD model cells, erythromycin was added at 0, 25 or 50 μM, and after 72 hours, the total RNA was extracted using RNeasy Mini Plus Kit (trade name, Qiagen). As a control, normal C2C12 cells were cultured in a medium without erythromycin, and the total RNA was similarly extracted. For RT-PCR, SuperScript III First-Strand Synthesis System (Invitrogen) was used to prepare cDNA, and after treatment with RNase H, the segment of interest was amplified using the Atp2a1 exon 22 RT primers shown below. The RT-PCR product was electrophoresed on a 2% agarose gel and then stained using GelRed. The normal PCR product and the aberrant PCR product were separately quantified with an image analyzer (Typhoon 9410, GE). Atp2a1 exon 22 RT primers

[2] = system: skeletal muscle chloride channel (Clcn1) gene splicing; assay: Aberrant splicing of Clcn1 gene in quadriceps femoris muscle of MyD model mice, intraperitoneal erythromycin; type: in vivo, mouse; conditions: HSA^LR mice, 150 mg/kg intraperitoneal once daily for 8 days, vs physiological saline MyD group
From the text: Erythromycin was intraperitoneally administered to MyD model mice, and its effects on muscle contraction in the quadriceps femoris muscle and on aberrant splicing of the skeletal muscle chloride channel (Clcn1) gene in the quadriceps femoris muscle were examined. The MyD model mice used were HSA^LR mice, which were kindly provided by Dr. Charles Thornton (University of Rochester) and bred in the laboratory animal facility of Osaka University. The HSA^LR mice are transgenic animals prepared by genomic integration of a hACTA gene (human gene constitutively expressed in myocytes) containing 3′-terminal CTG repeats expanded to 220, and manifest the symptoms of MyD upon the expression of mRNA with expanded CUG repeats in the myocytes (Science, 2000, 289 (5485), 1769-73). As a control, wild-type mice (FVB/NJcl mice, purchased from CLEA Japan) were used. Male and female mice aged 8 weeks were used for the experiment. The erythromycin used was “Erythrocin (registered trademark) for intravenous injection 500 mg (erythromycin lactobionate for injection)” (Abbott). This product was dissolved at 50 mg/mL in physiological saline before use. […] The normal PCR product and the aberrant PCR product were separately quantified with an image analyzer (Typhoon 9410, GE), and the percentage of the normal product in the total RT-PCR product was calculated. […]

HSA^LR mice [3] = assay: Muscle contraction (myotonia) by needle electromyography in MyD model mice, intraperitoneal erythromycin; type: in vivo, mouse; conditions: 150 mg/kg intraperitoneal once daily for 8 days, quadriceps femoris muscle, 24 h after final administration, n=3
Experimental: The animals were divided into three groups: an erythromycin administration MyD group, a physiological saline administration MyD group and a control (wild-type mice) group (n=3 (1 male, 2 females) per group). The dose of erythromycin was 150 mg/kg, and this dose was repeatedly administered once daily for 8 days. The physiological saline administration MyD group was repeatedly given physiological saline once daily for 8 days. Nothing was administered to the control (wild-type mice) group.
Twenty-four hours after the final administration, needle electromyography was performed in the quadriceps femoris muscle in the mice under anesthesia to record myotonic discharge. […]

[4] = system: skeletal muscle chloride channel (Clcn1) gene splicing; assay: Aberrant splicing of Clcn1 gene in quadriceps femoris muscle of MyD model mice, high-dose oral erythromycin; type: in vivo, mouse; conditions: HSA^LR mice, 300, 600, 900 mg/kg gavage once daily for 5 days
Experimental: High-dose erythromycin was orally administered to MyD model mice, and its effect on aberrant splicing of the skeletal muscle chloride channel (Clcn1) gene in the quadriceps femoris muscle was examined. The same MyD model mice (HSA^LR mice) and wild-type mice as in Example 3 were used. The erythromycin used was “Erythrocin (registered trademark) dry syrup […]% (erythromycin ethylsuccinate dry syrup)” (Abbott). This product was dissolved at 100 mg/mL in purified water before use. The animals were divided into five groups: an erythromycin 300 mg/kg administration MyD group, an erythromycin 600 mg/kg administration MyD group, an erythromycin 900 mg/kg administration MyD group, a physiological saline administration MyD group and a control (wild-type mice) group (n=3 per group). The administration was gavage administration and performed once daily for five consecutive days. On the day of the final administration, the quadriceps femoris muscle was dissected from each mouse. In the same manner as in Example 3, RT-PCR was performed, the normally spliced product and the aberrantly spliced product were separately quantified, and the percentage of the normal product in the total RT-PCR product was calculated. Statistical analysis was performed using t-test.

[5] = system: skeletal muscle chloride channel (Clcn1) gene splicing; assay: Aberrant splicing of Clcn1 gene in quadriceps femoris muscle of MyD model mice, usual-dose oral erythromycin; type: in vivo, mouse; conditions: HSA^LR mice, 50 mg/kg gavage once daily for 21 days, vs physiological saline MyD group
Experimental: Usual-dose erythromycin was orally administered to MyD model mice, and its effects on muscle contraction in the quadriceps femoris muscle and on aberrant splicing of the skeletal muscle chloride channel (Clcn1) gene in the quadriceps femoris muscle were examined. The same MyD model mice (HSA^LR mice) and wild-type mice as in Example 3 were used. As with the case in Example 4, “Erythrocin (registered trademark) dry syrup […]% (erythromycin ethylsuccinate dry syrup)” (Abbott) was dissolved at 100 mg/mL in purified water before use. The animals were divided into three groups: an erythromycin 50 mg/kg administration MyD group, a physiological saline administration MyD group and a control (wild-type mice) group (n=3 per group). The administration was gavage administration and performed once daily for 21 consecutive days. On the day of the final administration, the quadriceps femoris muscle was dissected from each mouse. In the same manner as in Example 3, RT-PCR was performed, and the normally spliced product and the aberrantly spliced product were separately quantified. Statistical analysis was performed using t-test.

HSA^LR mice [6] = assay: Muscle contraction (myotonia) by needle electromyography in MyD model mice, usual-dose oral erythromycin; type: in vivo, mouse; conditions: 50 mg/kg gavage once daily for 21 days, quadriceps femoris muscle, n=3
Experimental: Usual-dose erythromycin was orally administered to MyD model mice, and its effects on muscle contraction in the quadriceps femoris muscle and on aberrant splicing of the skeletal muscle chloride channel (Clcn1) gene in the quadriceps femoris muscle were examined. The same MyD model mice (HSA^LR mice) and wild-type mice as in Example 3 were used. As with the case in Example 4, “Erythrocin (registered trademark) dry syrup […]% (erythromycin ethylsuccinate dry syrup)” (Abbott) was dissolved at 100 mg/mL in purified water before use. The animals were divided into three groups: an erythromycin 50 mg/kg administration MyD group, a physiological saline administration MyD group and a control (wild-type mice) group (n=3 per group). The administration was gavage administration and performed once daily for 21 consecutive days. On the day of the final administration, needle electromyography was performed in the quadriceps femoris muscle in the mice under anesthesia to record myotonic discharge.

CC[C@H]1OC(=O)[C@H](C)[C@@H](O[C@H]2C[C@@](C)(OC)[C@@H](O)[C@H](C)O2)[C@H](C)[C@@H](O[C@@H]2O[C@H](C)C[C@H](N(C)C)[C@H]2O)[C@](C)(O)C[C@@H](C)C(=O)[C@H](C)[C@@H](O)[C@]1(C)O [erythromycin, (2R,3S,4S,5R,6R,8R,10R,11R,12S,13R)-5-(3,4,6-trideoxy-3-dimethylamino-β-D-xylo-hexopyranosyloxy)-3-(2,6-dideoxy-3-C-methyl-3-O-methyl-α-L-ribo-hexopyranosyloxy)-6,11,12-trihydroxy-2,4,6,8,10,12-hexamethyl-9-oxopentadecan-13-olide]
percentage of RNA foci positive cells (C2C12-DMPK800R cells): significantly decreased the percentage of RNA foci positive cells in a dose dependent manner | percentage of the normal product in the total RT-PCR product (Atp2a1 exon 22) [1]: significantly increased the percentage of the normal product to a level observed in the normal C2C12 cells | percentage of the normal product in the total RT-PCR product (Clcn1 exon 7a) [2]: significantly higher percentage of the normal RT-PCR product | severity of muscle contraction (frequency of myotonic discharge), per mouse (HSA^LR mice [3]): 1 (myotonic discharge was observed in less than 50% of the needle insertions.) and no muscle contraction | correction of aberrant splicing of the Clcn1 gene (percentage of normal product) [4]: significantly corrected the aberrant splicing of the Clcn1 gene in a dose dependent manner | percentage of the normal RT-PCR product (Clcn1) [5]: significantly higher percentage of the normal RT-PCR product | severity of muscle contraction (frequency of myotonic discharge), per mouse (HSA^LR mice [6]): 2 (myotonic discharge was observed in 50% or more and less than 90% of the needle insertions.) and 1 (myotonic discharge was observed in less than 50% of the needle insertions.)
